Data as given in PMC10720383, “Acetylcholinesterase Inhibition in Rats and Humans Following Acute Fenitrothion Exposure Predicted by Physiologically Based Kinetic Modeling-Facilitated Quantitative In Vitro to In Vivo Extrapolation” (Environmental Science & Technology, 2023).
Read-outs that look alike come from different tables or passages of the source.

Columns and labels:
PON1 [1] = molecular target: T1, PON1 (Homo sapiens, UniProt P27169); test: in vitro; type: in vitro ADME; settings: both sexes, pH 7.4, gender-mixed
T1 construct: gender-mixed liver microsomes or plasma from rats and humans; tissue BioIVT (West Sussex, UK); host or cells: human plasma pooled from 25 donors, mixed gender
Protocol: (§1) In vitro incubations were performed to obtain kinetic parameters for the CYP450s-catalyzed conversion of FNT to FNO and MNP using gender-mixed rat and human liver microsomes. For the PON1-dominated detoxification of FNO to MNP, in vitro incubations were conducted with gender-mixed liver microsomes or plasma from rats and humans. Sample extraction with diisopropyl ether was performed before UPLC-PDA analysis. More details on in vitro incubations, sample extraction, UPLC-PDA analysis, and calculation of kinetic parameters are provided in the Supporting Information. […]
(§2) All incubations were performed in triplicate.
(§3) In vitro incubations for metabolic conversions of FNO
(§4) Incubations with liver microsomes and plasma were performed to obtain kinetic parameters for PON1-mediated detoxification of FNO to MNP based on a modified method (Zhao et al. 2021). Incubation conditions that were suitable for linearity with respect to time and microsomal protein or plasma protein concentration were defined (data not shown). The final incubation mixtures with a total volume of 200 µL contained 50 mM Tris-HCl (pH 7.4), 2 mM CaCl2 as PON1 activity simulator, and FNO at final concentrations ranging from 25 to 5000 µM (added from 100 times concentrated stock solutions in acetonitrile). Controls differed from test incubations by the absence of liver microsomes or plasma, which was replaced with Tris-HCl. After 1-min pre-incubation in a 37°C water bath, 2 µL rat or 10 µL human liver microsomes (final concentration 0.2 and 1 mg microsomal protein/mL for rat and human samples, respectively) was added to initiate the reaction. For the plasma incubations, 4 µL of rat plasma or 10 µL human plasma (final concentration 1.2 and 3.3 mg plasma protein/mL for rat and human samples, respectively) was used. Reactions were terminated after incubating 10 min for rat samples or 20 min for human samples by adding 20 µL ice-cold HClO4 (10%, v/v), and samples were kept on ice until further extraction. All incubations were performed in triplicate.
(§5) DIPE extraction of FNT and its metabolites (Zhao et al. 2019; Wang et al. 2022) was performed before UPLC analysis. […]
(§6) Finally, the obtained residue was redissolved in 100 μL methanol, and subsequently analyzed with […]
(§7) The quantification of FNT, FNO and MNP was conducted using a Shimadzu Nexera X2 liquid chromatography system (LC-30AD, Kyoto, Japan), connected with a photodiode array detector (SPD-M30A, Shimadzu, Kyoto, Japan). […]
(§8) temperature at 10°C during analysis. […] Quantification of FNT and FNO was performed by integrating peak areas at 269 nm and for MNP at 315 nm using calibration curves (r2 > 0.99) prepared with commercial standards. The limit of quantification was 0.1 µM for FNT, FNO and MNP when using an injection volume of 20 µL. […]

PON1 [2] = molecular target: T2, PON1 (Rattus norvegicus, UniProt P55159); test: in vitro; type: in vitro ADME; settings: both sexes, Sprague-Dawley, pH 7.4, gender-mixed
T2 construct: gender-mixed liver microsomes or plasma from rats and humans; tissue Corning (male) and Sigma-Aldrich (female), pooled; host or cells: Sprague-Dawley rat liver microsomes, gender-mixed
Protocol: as §1, §2, §3, §4, §5, §6, §7, §8

T1 sequence (P27169 whole entry): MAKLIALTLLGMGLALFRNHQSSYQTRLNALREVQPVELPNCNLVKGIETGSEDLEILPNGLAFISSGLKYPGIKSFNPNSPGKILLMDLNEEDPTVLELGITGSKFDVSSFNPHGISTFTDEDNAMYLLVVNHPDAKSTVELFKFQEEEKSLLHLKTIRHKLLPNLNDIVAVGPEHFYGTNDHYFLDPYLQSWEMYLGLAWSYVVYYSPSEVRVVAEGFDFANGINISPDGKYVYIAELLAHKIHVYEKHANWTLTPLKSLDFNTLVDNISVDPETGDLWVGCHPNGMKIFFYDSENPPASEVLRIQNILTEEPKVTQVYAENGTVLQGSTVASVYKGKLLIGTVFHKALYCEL
T2 sequence (P55159 whole entry): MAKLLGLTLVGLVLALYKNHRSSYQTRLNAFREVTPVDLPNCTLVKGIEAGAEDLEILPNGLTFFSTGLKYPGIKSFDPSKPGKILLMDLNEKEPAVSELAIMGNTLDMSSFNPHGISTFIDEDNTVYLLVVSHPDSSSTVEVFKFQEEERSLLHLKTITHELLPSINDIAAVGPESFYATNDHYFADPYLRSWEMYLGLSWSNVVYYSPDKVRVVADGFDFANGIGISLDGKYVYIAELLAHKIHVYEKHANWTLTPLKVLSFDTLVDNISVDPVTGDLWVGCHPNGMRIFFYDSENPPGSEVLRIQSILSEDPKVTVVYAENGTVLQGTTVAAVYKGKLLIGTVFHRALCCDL

Q: For COP(=O)(OC)Oc1ccc([N+](=O)[O-])c(C)c1 [FNO, fenitrooxon], which Km (PON1 [1]; human liver microsomes, read-out: Km, FNO to MNP (PON1-catalyzed), liver) is on record?
A: 12.6 mM

Q: And the Km (PON1 [1]; human plasma, read-out: Km, FNO to MNP (PON1-catalyzed), plasma)?
A: 5.49 mM

Q: And the Km (PON1 [2]; rat liver microsomes, read-out: Km, FNO to MNP (PON1-catalyzed), liver)?
A: 4.53 mM

Q: And the Km (PON1 [2]; rat plasma, read-out: Km, FNO to MNP (PON1-catalyzed), plasma)?
A: 4.08 mM
